According to article PMC6984391, “Anion carriers as potential treatments for cystic fibrosis: transport in cystic fibrosis cells, and additivity to channel-targeting drugs” (Chemical Science, 2019):
Read-outs that look alike come from different tables or passages of the source.

Key:
YFP-FRT cells = experiment: YFP fluorescence plate reader assay of anion transport in YFP-FRT cells; assay type: cell-based, Fischer rat; conditions: for Corrected absolute initial slope |dF/dT|: transporter 50 μM, DMSO 0.5% v/v, DMSO-only subtracted, I^– 100 mM; for anion transport activity in YFP-FRT cells (in words): 50 μM
Experimental: We treated YFP-FRT cells with anionophores (final concentration, 1–50 μM) or the vehicle DMSO (0.1–0.5% v/v) by direct addition to the phosphate-buffered saline (PBS) bathing the cells. After incubating YFP-FRT cells with anionophores for 10 minutes at 37 °C, we evaluated anion transport activity by adding I^– (100 mM), using a PBS iodide solution with Cl^– replaced by I^–, and following cell fluorescence for 14 s. FRT cells are relatively impermeable to anions because they lack key ion channels found in epithelial cells, including CFTR.[33] Thus, in the absence of anionophore, iodide cannot enter YFP-FRT cells and no quenching of fluorescence occurs. By contrast, in the presence of an anionophore, iodide influx occurs leading to fluorescence quenching.[29]
To quantify anion transport by different anionophores, we fitted first order exponential functions to the iodide-induced fluorescence decay to measure the initial slope, averaging values over multiple experiments. Fig. 2b and Table 1 summarise the data. Consistent with our previous results,[29] we observed a wide range of anion transport activity. […] We therefore selected for further study 11, 12, 15 and 19.
FRT cells stably expressing the halide sensor YFP-H148Q/I152L6 were generous gifts of AS Verkman (University of California, San Francisco), while CFBE41o- cells7 stably expressing YFP (YFP-CFBE cells) were a generous gift of LJV Galietta (Telethon Institute for […]
Genetics and Medicine). […]
U ml-1 penicillin and […] streptomycin. All cells were incubated at 37 °C in a humidified atmosphere with 5% CO2. […]
Fluorescence plate reader assay […]
quenching of YFP fluorescence at 37 °C using a microplate reader following the method of Galietta et al..9 The microplate reader (model: FLUORstar Omega; BMG LABTECH Ltd., Aylesbury, UK) was equipped with a syringe pump and excitation (500 ± 10 nm) and emission (535 ± 15 nm) filters (Chroma Technology GmbH, Olching, Germany). After washing cells twice with PBS (composition (mM): 137 NaCl, 2.7 KCl, 8.1 Na2HPO4, 1.5 KH2PO4, 1 CaCl2 and 0.5 MgCl2, pH 7.40), cells were incubated with test anionophores (1 – 50 µM) or the vehicle (DMSO [0.1 – 0.5% v v-1]) in 40 µl of PBS for 10 – 120 minutes according to the experimental design. Other compounds, including forskolin, ivacaftor and channel inhibitors were added to […]
the PBS bathing cells 10 minutes prior to PBS iodide addition, whereas UTP was added to cells with the PBS iodide solution. Fluorescence was measured for 14 seconds; 2 seconds before and 12 seconds after injection of 110 µl PBS iodide solution (137 mM Cl- replaced by I-) into each well (to obtain a final concentration of I- of 100 mM).
We expressed cell fluorescence values (F) relative to the fluorescence value immediately before I- injection (F0), excluding the initial decrease, which likely represents the quenching of extracellular YFP released from cells and signal reduction accompanying the increase in solution volume bathing cells. To quantify anion transport by test anionophores, we determined the initial slope of the fluorescence decay following I - addition by fitting first order exponential functions to the last 12 seconds of each fluorescence recording. In each experim ent, n values represent the mean of two replicates and all treatments were tested at least three times using different microplates. […]
FRT cells was selected and the cells were perfused with (i) PBS for 5 minutes then (ii) PBS containing I- (10 mM) (made by preparing PBS with 127 mM NaCl to maintain osmolarity) for 5 minutes and finally (iii) PBS for 30 minutes to remove thoroughly I- from the perfusion chamber. YFP-FRT cells were repeatedly treated with I- (10 mM) and then washed with PBS […]
During all interventions, the rate of solution perfusion was 8 – 10 ml min-1; temperature was 37 °C and except for the first

[1] = set-up: method as in PMID 22461434, PMID 21846096, PMID 29786913; conditions: mol% carrier to lipid for 50% Cl^– efflux in 270 s; 490 mM NaCl inside, 490 mM NaNO3 outside; ref [22], [16 and 25]; cited from earlier work
[2] = set-up: method as in ref [16 and 25], [20], [21], [22], [23], [24], [29] (Reference column); conditions: 1H NMR titrations with Bu4N^+Cl^– in DMSO-d6/H2O (200 : 1) at 298 K; ref [16 and 25], [20], [21], [22], [23], [24], [29]; cited from earlier work
[3] = Cl-/NO3- exchange in LUVs with preincorporated anionophore (lucigenin method); assay type: biochemical; conditions: transporter preincorporated in LUVs (70% POPC + 30% cholesterol), 25 mM NaCl gradient, 225 mM NaNO3; new compound or new data
Experimental: The four new anionophores were tested for affinity to Cl^– (in CHCl3 and DMSO, with tetra-alkylammonium counter-ions), and for anion transport (Cl^–/NO3^– exchange) when preloaded into 200 nm large unilamellar vesicles (LUVs). The latter assay was performed using the well-established “lucigenin method”[30] in which Cl^– influx into vesicles is followed through quenching of fluorescence from the halide-sensitive fluorophore lucigenin. The results are listed in Table 1, accompanied by corresponding values for the previously-reported compounds where available. […] In this test, anion transport by anionophores delivered externally to LUVs is compared with their action when preloaded into LUV membranes.[24],[29],[32]
3. Transport studies in vesicles
Transport measurements in vesicles with preincorporated anionophores.
1-Palmitoyl-2-oleoyl-sn-glycero-3-phosphocholine (POPC) was obtained from Avanti® Polar Lipids, Inc. An extrusion apparatus and 200 nm polycarbonate membranes were obtained from GC Technology Ltd. All lipid and receptor solutions were prepared using chloroform that had been deacidified by passage through a flash chromatography column containing basic alumina, and all aqueous solutions were prepared using deionised water that had been passed through a Millipore filtration system.
POPC and cholesterol solutions (~10 mM) in deacidified chloroform were combined with a solution of transporter in methanol or deacidified chloroform in a 5 mL round bottomed flask.
Volumes of the aliquots were calculated from the concentrations of the lipid solution to obtain a POPC to cholesterol ratio of 7:3 (for instance by combining 4.20 µmol POPC and 1.80 µmol cholesterol). The ratio of anionophore to lipid (POPC + cholesterol) was either 1:2500 or 1:25000, as specified in the experiments. The solvents from the lipid/receptor mixture were evaporated under a stream of N2 and the lipid film was dried under high vacuum for 1 h. The residue was hydrated with 500 µL of an aqueous solution of 10,10'-dimethyl-9,9'-biacridinium nitrate (lucigenin, 0.8 mM) and NaNO3 (225 mM), sonicated for 30 s and stirred for 1 h to give heterogeneous vesicles. Multilamellar vesicles were disrupted by 10 freeze-thaw cycles and then the solution was diluted to 1 mL (by adding 0.5 mL of 225 mM NaNO3) and carefully extruded (29 times) through a polycarbonate membrane (200 nm pore size) to give a uniform distribution of LUVs with an average diameter of ~200 nm.2 The external lucigenin was removed by passing the solution though a size exclusion column (containing ~2 g Sephadex 50G, eluted with 225 mM NaNO3). The collected vesicles were further diluted with NaNO3 solution (225 mM) to obtain a vesicle solution with 0.4 mM lipid concentration. 3.00 mL of this vesicle solution was placed in a quartz cuvette with a small stir bar and the fluorescence intensity (excitation at 450 nm, emission at 535 nm) was measured over time at 25 °C, using a PerkinElmer LS45 fluorescence spectrometer. 75 µL of aqueous NaCl (1.0 M in 225 mM NaNO3, to give an overall external chloride concentration of 25 mM) was added ~30 seconds after the start of the experiment and the fluorescence intensity was measured for another 14 […]
Fluorescence data were collected for at least four replicate experiments. The plateau (before addition of chloride) and the vertical drop (the first 1-2.5 seconds after chloride addition, due to quenching of external lucigenin) were removed. Next the data were normalized: all fluorescence values (F) were divided by the fluorescence value before addition of chloride (F0).
Initial rates (I) were obtained from fluorescence -decay curves (0-500 s) by fitting their inverse (F0/F) to a double exponential decay function:
Differentiating this gives F = abe−bt + cde−dt […]
and substituting t = 0 gives the following equation for initial rate: I = ab + cd Specific initial rates [I] were obtained by dividing the initial rates by the anionophore to lipid […]

[4] = set-up: method as in ref [20], [21], [23], [24], [29] (Reference column); conditions: transporter preincorporated in LUVs (70% POPC + 30% cholesterol), 25 mM NaCl gradient, 225 mM NaNO3; ref [20], [21], [23], [24], [29]; cited from earlier work
[5] = Affinity to Cl- in chloroform by extraction of Et4N+Cl- from water; assay type: binding; conditions: extraction of Et4N^+Cl^– from water into chloroform at 303 K; new compound or new data
Experimental: Measurement of affinities to Et4N+Cl- in chloroform through extraction from […]
This method is adapted from Clare et al..4 The Et4N+Cl- salt was obtained from Sigma Aldrich and dried under vacuum overnight prior to solution preparation using deionised water that had been passed through a Millipore filtration system. All host solutions were prepared using chloroform that had been deacidified by passage through a flash chromatography column containing basic alumina.
A solution of host in deacidified chloroform was combined with 10 mL of aqueous Et4N+Cl-guest solution in a sample tube (30 mL). Concentrations and volumes are specified in Table
S1. A magnetic stirring bar (2 cm) was added to the tube and the lower half was immersed in a water bath heated to 303 K, while the contents were stirred vigorously to achieve good mixing of the two phases. After 30 minutes, stirring was stopped and the two phases were allowed to separate. The majority of the aqueous phase was then removed using a pipette and the remaining organic phase was centrifuged for 10 minutes at 4000 rpm. The chloroform solution was then filtered through Whatman 1PS hydrophobic filter paper to remove any remaining aqueous phase. Solvent from the filtrate was then removed in vacuo and the solid was further dried under vacuum. The resulting solids from the extraction experiments were dissolved in acetone-d6 and the solutions were analysed with 1H NMR spectroscopy.
A value for the molar ratio (R) was determined by integrating the signal at δ = 3.5 ppm (CH2 of Et4N+Cl-) against one of the receptor signals.
The values for R obtained from the 1H NMR spectra were used to calculate values for the equilibrium extraction constants Ke:
Horg + Xaq− + Yaq+ ⇌HX−Yorg+ Ke = org […]
To convert the extraction constants Ke into association constants Ka it is necessary to obtain the distribution constants Kd for the substrates between aqueous and organic phases:
The Kd value for tetraethylammonium chloride partitioning between water and chloroform has been determined and reported previously to be 1.269 × 10-5 M-1.5
The binding constant Ka is then calculated from Ke and Kd:
H + X−Y+ ⇌ HX−Y+ K = org = e […]
When [G] > 100 mM, the amount of salt that migrates from the aqueous phase into the organic phase without assistance of the host has to be taken into account by correcting the measured […]
Table S1. Overview of the conditions and results from the extraction experiments Receptor [H] (mM) [G] (mM) Vorg (mL) Vaq (mL) Rmeasured Ka (M-1)

O=c1c(Nc2ccccc2)c(Nc2ccccc2)c1=O [Compound 1]
Corrected absolute initial slope |dF/dT| (YFP-FRT cells): 0 ×10^–3 s^–1
EC50, 270 s [1]: 1.38 mol%
K a to Cl^– in DMSO [2]: 2.6 × 10^2 M^–1

O=c1c(Nc2ccc(C(F)(F)F)cc2)c(Nc2ccc(C(F)(F)F)cc2)c1=O [Compound 2]
Corrected absolute initial slope |dF/dT| (YFP-FRT cells): 0.3 ×10^–3 s^–1
EC50, 270 s [1]: 0.06 mol%
K a to Cl^– in DMSO [2]: 4.6 × 10^2 M^–1

O=c1c(Nc2cc(C(F)(F)F)cc(C(F)(F)F)c2)c(Nc2cc(C(F)(F)F)cc(C(F)(F)F)c2)c1=O [Compound 3]
Corrected absolute initial slope |dF/dT| (YFP-FRT cells): 0 ×10^–3 s^–1
Specific initial rate [I] [3]: 75 ^b s^–1
EC50, 270 s [1]: 0.01 mol%
K a to Cl^– in DMSO [2]: 6.4 × 10^2 M^–1

CCc1c(CNC(=S)Nc2ccc([N+](=O)[O-])cc2)c(CC)c(CNC(=S)Nc2ccc([N+](=O)[O-])cc2)c(CC)c1CNC(=S)Nc1ccc([N+](=O)[O-])cc1 [Compound 4]
Corrected absolute initial slope |dF/dT| (YFP-FRT cells): 0.2 ×10^–3 s^–1
Specific initial rate [I] [4]: 5 s^–1
K a to Cl^– in DMSO [2]: 3.8 × 10^2 M^–1

CCc1c(CNC(=O)Nc2cc(C(F)(F)F)cc(C(F)(F)F)c2)c(CC)c(CNC(=O)Nc2cc(C(F)(F)F)cc(C(F)(F)F)c2)c(CC)c1CNC(=O)Nc1cc(C(F)(F)F)cc(C(F)(F)F)c1 [Compound 7]
Corrected absolute initial slope |dF/dT| (YFP-FRT cells): 0.2 ×10^–3 s^–1
Specific initial rate [I] [4]: 50 s^–1
K a to Cl^– in DMSO [2]: 3.9 × 10^2 M^–1

S=C(NCCN(CCNC(=S)Nc1ccccc1)CCNC(=S)Nc1ccccc1)Nc1ccccc1 [Compound 17]
Corrected absolute initial slope |dF/dT| (YFP-FRT cells): 0.5 ×10^–3 s^–1
EC50, 270 s [1]: 0.31 mol%
K a to Cl^– in DMSO [2]: 1.8 × 10^3 M^–1
K a to Cl^– in CHCl3 [5]: 5.2 × 10^5 ^b M^–1

O=C(Nc1ccc([N+](=O)[O-])cc1)Nc1cccc2cc3cccc(NC(=O)Nc4ccc([N+](=O)[O-])cc4)c3cc12 [Compound 20]
anion transport activity in YFP-FRT cells (in words) (YFP-FRT cells): intermediate levels
Corrected absolute initial slope |dF/dT| (YFP-FRT cells): 8.4 ×10^–3 s^–1
Specific initial rate [I] [4]: 2100 s^–1
K a to Cl^– in DMSO [2]: 2.6 × 10^3 M^–1

O=C(Nc1ccc(C(F)(F)F)cc1)Nc1cccc2cc3cccc(NC(=O)Nc4ccc(C(F)(F)F)cc4)c3cc12 [Compound 21]
Corrected absolute initial slope |dF/dT| (YFP-FRT cells): 1.7 ×10^–3 s^–1
Specific initial rate [I] [4]: 1200 s^–1
K a to Cl^– in DMSO [2]: 2.2 × 10^3 M^–1

O=C(Nc1cc(C(F)(F)F)cc(C(F)(F)F)c1)Nc1cccc2cc3cccc(NC(=O)Nc4cc(C(F)(F)F)cc(C(F)(F)F)c4)c3cc12 [Compound 22]
anion transport activity in YFP-FRT cells (in words) (YFP-FRT cells): intermediate levels
Corrected absolute initial slope |dF/dT| (YFP-FRT cells): 9.0 ×10^–3 s^–1
Specific initial rate [I] [4]: 1900 s^–1
K a to Cl^– in DMSO [2]: 3.0 × 10^3 M^–1
